Results reported in patent publication US6642224B1, “Diazepan derivatives or salts thereof” (Yamanouchi Pharmaceutical Co., Ltd., priority 2000, dated 2003).

What was measured:
human factor Xa = biological target: T1, human factor Xa (Homo sapiens, UniProt P00742); test: Test on measurement of coagulation time by human activated blood coagulation factor X; type: biochemical; conditions: human blood plasma; concentration by which the coagulation time is prolonged 2-fold
T1 construct: purchased Enzyme Research Labs
T1 sequence (P00742 235-488 limits assumed): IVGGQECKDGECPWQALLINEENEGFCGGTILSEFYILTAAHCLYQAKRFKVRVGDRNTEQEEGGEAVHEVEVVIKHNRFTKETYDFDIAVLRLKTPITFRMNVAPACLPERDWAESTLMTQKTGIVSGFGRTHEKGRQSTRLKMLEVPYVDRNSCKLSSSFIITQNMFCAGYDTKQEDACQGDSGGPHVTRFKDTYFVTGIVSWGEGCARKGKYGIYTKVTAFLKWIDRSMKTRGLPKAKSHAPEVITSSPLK
T1 sequence (P00742 41-179 partner limits assumed): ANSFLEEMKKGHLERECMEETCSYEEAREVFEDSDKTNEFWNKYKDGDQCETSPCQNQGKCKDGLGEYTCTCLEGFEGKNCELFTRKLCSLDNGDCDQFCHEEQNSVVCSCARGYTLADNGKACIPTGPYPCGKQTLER
Experimental: 1) Test on Measurement of Coagulation Time by Human Activated Blood Coagulation Factor X
To 90 μl of human blood plasma were added 10 μl of a drug or a physiological saline and 50 μl of human factor Xa (Enzyme Research Labs), incubation was carried out at 37° C. for 3 minutes, 100 μl of 20 mM CaCl2 previously warmed at 37° C. were added and the time until coagulation was measured by a coagulo-meter (KC10 of Amelung). With regard to the human blood plasma, each 45 ml of blood were collected from vein of elbow of six healthy persons using a syringe in which 5 ml of 3.8% sodium citrate were contained and centrifuged at 4° C. for 15 minutes at 3,000 rpm and the separated blood plasma was pooled and frozen, then thawed before use. With regard to the human factor Xa, the concentration by which the coagulation time when a physiological saline (control) was added was about 30 to 40 seconds was selected. A CT2 value (concentration by which the coagulation time is prolonged to an extent of 2-fold) was determined by plotting the drug concentrations and relative value (fold) of the coagulation time to the control, followed by subjecting to linear regression.

bovine thrombin = biological target: T2, bovine thrombin (Bos taurus, UniProt P00735); test: Test on measurement of coagulation time by bovine thrombin; type: biochemical; conditions: human blood plasma; concentration by which the coagulation time is prolonged 2-fold
T2 construct: 500 units of Thrombin (derived from bovine; Mochida Pharmaceutical); purchased Mochida Pharmaceutical
Experimental: 2) Test on Measurement of Coagulation Time by Bovine Thrombin
To 50 μl of human blood plasma was added 50 μl of a drug or a physiological saline, incubation was carried out at 37° C. for 3 minutes, 50 μl of thrombin (500 units of Thrombin (derived from bovine; Mochida Pharmaceutical) previously warmed at 37° C. was added and the time until coagulation was measured by a coagulo-meter (KC10 of Amelung). With regard to the human blood plasma, each 45 ml of blood was collected from vein of elbow of six healthy persons using a syringe in which 5 ml of 3.8% sodium citrate was contained and centrifuged at 4° C. for 15 minutes at 3,000 rpm and the separated blood plasma was pooled and frozen, then thawed before use. With regard to the thrombin, the concentration by which the coagulation time when a physiological saline (control) was added was about 20 seconds was selected. A CT2 value (concentration by which the coagulation time is prolonged to an extent of 2-fold) was determined by plotting the drug concentrations and relative value (fold) of the coagulation time to the control, followed by subjecting to linear regression.

[1] = Test on ex vivo measurement of coagulation time in cynomolgus monkeys (oral administration); conditions: male cynomolgus monkeys, po 10 mg/kg, as compared with control (plasma without administration of a drug)
Experimental: (§1) a) Extrinsic Coagulation Time (PT)
(§2) Ortho Brain Thromboplastin (54 mg/vial; a freeze-dried preparation; Ortho-Clinical Diagnostics) was dissolved in 2.5 ml of Milli-Q water and preliminarily warmed at 37° C. The above-separated blood plasma (50 μl) was warmed at 37° C. for 1 minute, 50 μl of the above-mentioned thromboplastin solution was added and the coagulation time was measured. Amelung KC10A was used for the measurement of the coagulation time.
(§3) b) Intrinsic Coagulation Time (APTT)
(§4) To 50 μl of the above blood plasma was added 50 μl of Hemoliance Thrombosil I (DIA-IATRON), the mixture was warmed at 37° C. for 3 minutes, 50 μl of a 20 mM CaCl2 solution previously warmed at 37° C. were added and the coagulation time was measured. KC10A manufactured by Amelung was used for the measurement of the coagulation time.
5) Test on ex vivo Measurement of Coagulation Time in Cynomolgus Monkeys (Oral Administration) […]

[2] = Test on ex vivo measurement of coagulation time in mice (oral administration); conditions: male ICR mouse, po 100 mg/kg, as compared with control (plasma without administration of a drug)
Experimental: 4) Test on ex vivo Measurement of Coagulation Time in Mice (Oral Administration)
Using the resulting blood plasma, extrinsic coagulation time (PT) and intrinsic coagulation time (APTT) were measured in accordance with the following methods a) and b).
as §1, §2, §3, §4
Dose dependency of and time-course changes in the anticoagulation action were also examined by changing the administration dose or the blood collection time.

SMILES	Test on measurement of coagulation time by human activated blood coagulation factor X (CT2) (human factor Xa) [µM]	Test on measurement of coagulation time by bovine thrombin (CT2) (bovine thrombin) [µM]	prolongation of extrinsic coagulation time (PT) [1]	prolongation of intrinsic coagulation time (APTT) [1]	prolongation of extrinsic coagulation time (PT) [2]	prolongation of intrinsic coagulation time (APTT) [2]
COc1ccc(C(=O)Nc2ccccc2NC(=O)c2ccc(C3CCNCC3)cc2)cc1 [Control 1, reference compound]	17.0	>100				
COc1ccc(C(=O)Nc2ccc(O)cc2NC(=O)c2ccc(N(C)C)cc2)cc1 [Control 2, reference compound]	11.3					
CN1CCCN(c2ccc(C(=O)Nc3cc(C(=O)O)ccc3COc3cccc(C(=N)N)c3)cc2)CC1.Cl [Example 3]			twice or more	twice or more	twice or more	twice or more

More lines, main results first:

Test on measurement of coagulation time by human activated blood coagulation factor X (CT2) (human factor Xa) [µM]	Test on measurement of coagulation time by bovine thrombin (CT2) (bovine thrombin) [µM]	SMILES	prolongation of extrinsic coagulation time (PT) [1]	prolongation of intrinsic coagulation time (APTT) [1]	prolongation of extrinsic coagulation time (PT) [2]	prolongation of intrinsic coagulation time (APTT) [2]
0.10	>100	CN1CCCN(c2ccc(C(=O)Nc3cc(C(=O)O)ccc3CCc3cccc(C(=N)N)c3)cc2)CC1.Cl [Example 5]				
1.71	>100	COc1ccc(NC(=O)c2cccc(O)c2NC(=O)c2ccc(N3CCCN(C)CC3)cc2)cc1.Cl [Example 9, 3-hydroxy-4′-methoxy-2-{[4-(4-methyl-1,4-diazapan-1-yl)benzoyl]amino}benzanilide hydrochloride]				
1.33	>100	CN1CCCN(c2ccc(C(=O)Nc3c(O)cccc3C(=O)Nc3ccc(F)cc3)cc2)CC1.Cl [Example 11]				
1.41	>100	COc1ccc(C(=O)Nc2cccc(O)c2NC(=O)c2ccc(N3CCCN(c4ccncc4)CC3)cc2)cc1.Cl [Example 32]				
1.53	>100	COc1ccc(C(=O)Nc2cccc(OCCO)c2NC(=O)c2ccc(N3CCCN(C)CC3)cc2)cc1.Cl [Example 39, 3-(2-hydroxyethoxy)-N^1-(4-methoxybenzoyl)-N^2-[4-(4-methyl-1,4-diazepan-1-yl)benzoyl]-1,2-phenylenediamine hydrochloride]				
